Drawing on patent US20250270209A1 (INTERLINE THERAPEUTICS, INC., priority 2022, published 2025), this text covers IC50 for 13 compounds.

Assay [1] has as its target T1, wild type LRRK2 overexpressed in recombinant HEK-293T cells (Homo sapiens, UniProt Q5S007).
T1 construct: host or cells: HEK293T (transient transfection with pCMV-LRRK2 WT plasmid)
As to the kind of experiment: pS935 LRRK2 Cell Assay (HTRF, phospho-LRRK2 Ser935). The class given is cell-based. The note with it: LRRK2 Inhibition, Table 8, 2 hours compound incubation. In short, it runs like this:
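HEK-293T cells transiently transfected with wild-type LRRK2 for 24 h, plated overnight, then treated 2 h at 37° C with compound (top 10 μM, 3-fold, 9 doses, duplicates, 0.2% DMSO). Lysates probed overnight at 23° C by sandwich HTRF for pSer935; 665/615 nm ratio read.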
In general terms: TR-FRET usually uses a lanthanide donor and a delayed reading to cut background.

Another assay concerns the target LRRK2 wild type enzyme (Homo sapiens, UniProt Q5S007). The experiment in a line: Biochemical Assay: LRRK2 TR-FRET (LanthaScreen) kinase assay with LRRKtide substrate. The note with it: LRRK2 Inhibition, Table 8. In short, it runs like this:
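Human wild-type LRRK2 (3 nM) preincubated 15 min with compound (11-point, 3-fold, top 10 μM), then reacted 120 min at 23 °C with 400 nM LRRKtide and 25 μM ATP, pH 8.0. Stopped with EDTA; Tb-anti-pLRRKtide TR-FRET read after 30 min.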

A word on the IC50: it is the concentration that gives 50% inhibition.

T1 sequence (Q5S007 whole entry): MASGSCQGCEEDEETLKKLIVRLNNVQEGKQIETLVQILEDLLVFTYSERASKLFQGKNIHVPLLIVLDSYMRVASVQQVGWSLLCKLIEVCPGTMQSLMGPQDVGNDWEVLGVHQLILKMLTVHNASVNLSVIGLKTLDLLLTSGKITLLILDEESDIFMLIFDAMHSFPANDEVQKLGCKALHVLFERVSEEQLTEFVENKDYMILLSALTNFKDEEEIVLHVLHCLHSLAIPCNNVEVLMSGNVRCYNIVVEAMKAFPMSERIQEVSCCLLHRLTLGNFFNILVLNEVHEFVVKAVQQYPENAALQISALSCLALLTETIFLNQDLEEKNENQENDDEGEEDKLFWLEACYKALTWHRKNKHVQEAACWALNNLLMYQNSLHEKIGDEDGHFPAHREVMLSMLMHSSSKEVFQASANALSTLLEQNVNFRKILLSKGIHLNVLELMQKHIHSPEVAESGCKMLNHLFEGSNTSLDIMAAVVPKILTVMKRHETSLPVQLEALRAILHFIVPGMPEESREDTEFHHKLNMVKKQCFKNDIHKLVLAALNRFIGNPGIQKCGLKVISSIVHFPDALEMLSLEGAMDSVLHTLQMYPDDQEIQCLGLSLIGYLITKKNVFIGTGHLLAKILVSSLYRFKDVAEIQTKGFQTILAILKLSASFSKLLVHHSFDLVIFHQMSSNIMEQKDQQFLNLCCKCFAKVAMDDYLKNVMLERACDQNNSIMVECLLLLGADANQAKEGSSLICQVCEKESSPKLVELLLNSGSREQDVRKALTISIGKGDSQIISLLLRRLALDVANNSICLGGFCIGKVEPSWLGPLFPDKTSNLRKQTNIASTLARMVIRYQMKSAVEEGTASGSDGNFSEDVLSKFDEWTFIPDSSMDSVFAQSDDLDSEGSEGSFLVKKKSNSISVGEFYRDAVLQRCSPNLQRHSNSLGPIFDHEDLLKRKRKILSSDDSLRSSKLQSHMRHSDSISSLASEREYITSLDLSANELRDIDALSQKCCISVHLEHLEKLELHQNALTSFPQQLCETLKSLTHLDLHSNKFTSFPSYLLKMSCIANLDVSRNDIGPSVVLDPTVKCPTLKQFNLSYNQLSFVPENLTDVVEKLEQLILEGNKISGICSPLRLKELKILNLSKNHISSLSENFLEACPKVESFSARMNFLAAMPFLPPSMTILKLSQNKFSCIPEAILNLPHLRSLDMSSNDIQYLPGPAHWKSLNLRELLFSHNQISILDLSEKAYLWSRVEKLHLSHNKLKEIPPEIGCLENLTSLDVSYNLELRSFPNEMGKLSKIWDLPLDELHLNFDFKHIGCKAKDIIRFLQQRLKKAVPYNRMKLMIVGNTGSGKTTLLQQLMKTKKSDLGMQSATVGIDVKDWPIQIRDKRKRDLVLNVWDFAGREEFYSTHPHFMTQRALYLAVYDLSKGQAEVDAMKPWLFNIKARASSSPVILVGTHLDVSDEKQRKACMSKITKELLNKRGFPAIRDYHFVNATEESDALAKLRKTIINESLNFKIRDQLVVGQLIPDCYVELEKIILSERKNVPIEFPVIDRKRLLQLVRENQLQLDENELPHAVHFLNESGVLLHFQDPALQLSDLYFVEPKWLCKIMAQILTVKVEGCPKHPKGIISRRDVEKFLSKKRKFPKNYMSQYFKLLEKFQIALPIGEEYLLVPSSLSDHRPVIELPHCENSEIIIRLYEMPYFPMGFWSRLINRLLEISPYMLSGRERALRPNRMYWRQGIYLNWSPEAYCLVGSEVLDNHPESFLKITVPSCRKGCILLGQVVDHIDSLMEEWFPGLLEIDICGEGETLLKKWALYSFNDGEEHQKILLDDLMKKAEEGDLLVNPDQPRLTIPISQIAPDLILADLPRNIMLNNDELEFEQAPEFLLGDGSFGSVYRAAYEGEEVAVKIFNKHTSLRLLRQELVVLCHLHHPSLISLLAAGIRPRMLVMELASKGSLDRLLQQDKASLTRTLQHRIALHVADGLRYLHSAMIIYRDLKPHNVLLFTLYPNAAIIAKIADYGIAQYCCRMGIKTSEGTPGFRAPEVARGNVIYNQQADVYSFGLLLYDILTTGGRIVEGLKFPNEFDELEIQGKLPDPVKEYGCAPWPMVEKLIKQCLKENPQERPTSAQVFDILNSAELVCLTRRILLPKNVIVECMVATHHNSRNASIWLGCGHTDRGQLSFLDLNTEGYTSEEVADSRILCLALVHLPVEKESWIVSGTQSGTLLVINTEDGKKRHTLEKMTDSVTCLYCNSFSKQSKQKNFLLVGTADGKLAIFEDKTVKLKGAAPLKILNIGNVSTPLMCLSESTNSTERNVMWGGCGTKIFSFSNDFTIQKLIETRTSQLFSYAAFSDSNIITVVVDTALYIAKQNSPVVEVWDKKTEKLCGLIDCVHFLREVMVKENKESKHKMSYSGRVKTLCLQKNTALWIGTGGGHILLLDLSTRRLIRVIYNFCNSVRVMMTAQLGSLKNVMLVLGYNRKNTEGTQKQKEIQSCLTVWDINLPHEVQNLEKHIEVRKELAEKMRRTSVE
Sequence of LRRK2 wild type enzyme (Q5S007 whole entry): as above

With `Cc1ncc(NC(=O)Cc2nc3cnc4ccc(C#N)cc4c3n2[C@@H]2CCO[C@H](C)C2)cn1` [Compound 329, N-(2-methyl-5-pyrimidinyl){3-[(2R,4R)-2-methyltetrahydro-2H-pyran-4-yl]-12-cyano-3,5,8-triazatricyclo[7.4.0.0^2,6]trideca-1(9),2(6),4,7,10,12-hexaen-4-yl}acetamide], the IC50 in assay [1] came to 16.5 nM; against LRRK2 wild type enzyme it was 0.483 nM.

Take `C[C@@H]1C[C@H](n2c(CC(=O)NC3CCc4cccnc43)nc3cnc4ccc(C#N)cc4c32)CCO1` (stereo partly drawn) [Compound 151, 2-{8-cyano-1-[(2R,4R)-2-methyloxan-4-yl]-1H-imidazo[4,5-c]quinolin-2-yl}-N-{5H,6H,7H-cyclopenta[b]pyridin-7-yl}acetamide]: the IC50 came to 23.3 nM in assay [1] and 0.55 nM against LRRK2 wild type enzyme.

Consider `C[C@@H]1C[C@H](n2c(CC(=O)Nc3cc(C4CCC4)no3)nc3cnc4ccc(C#N)cc4c32)CCO1` [Compound 340, N-(3-cyclobutyl-5-isoxazolyl){3-[(2R,4R)-2-methyltetrahydro-2H-pyran-4-yl]-12-cyano-3,5,8-triazatricyclo[7.4.0.0^2,6]trideca-1(9),2(6),4,7,10,12-hexaen-4-yl}acetamide], for which the figures for the IC50 (in assay [1]; against LRRK2 wild type enzyme) were 15.7 nM and 1.53 nM, respectively.

As for `C[C@@H]1C[C@H](n2c(C3CN(S(C)(=O)=O)C3)nc3cnc4ccc(C#N)cc4c32)CCO1` [Compound 67, 2-(1-methanesulfonylazetidin-3-yl)-1-[(2R,4R)-2-methyloxan-4-yl]-1H-imidazo[4,5-c]quinoline-8-carbonitrile], the IC50 in assay [1] turned out to be 500 nM; against LRRK2 wild type enzyme it was 3.03 nM.

In the case of `COc1cc(C)ncc1NC(=O)Cc1nc2cnc3ccc(C#N)cc3c2n1[C@@H]1CCO[C@H](C)C1` [Compound 226, N-(4-methoxy-6-methyl-3-pyridyl){3-[(2R,4R)-2-methyltetrahydro-2H-pyran-4-yl]-12-cyano-3,5,8-triazatricyclo[7.4.0.0^2,6]trideca-1,4,6,8,10,12-hexaen-4-yl}acetamide], the results for the 50% inhibitory concentration (IC50) (in assay [1]; against LRRK2 wild type enzyme) were 5.44 nM and 0.461 nM, respectively.

Consider `Cc1ccc(CN2CC(c3nc4cnc5ccc(C#N)cc5c4n3[C@@H]3CCO[C@H](C)C3)CC2=O)cn1` (stereo partly drawn) [Compound 13, 1-[(2R,4R)-2-methyloxan-4-yl]-2-{1-[(6-methylpyridin-3-yl)methyl]-5-oxopyrrolidin-3-yl}-1H-imidazo[4,5-c]quinoline-8-carbonitrile], for which the IC50 in assay [1] stood at 180 nM; against LRRK2 wild type enzyme, 1.19 nM.

Turning to `C[C@@H]1C[C@H](n2c(CC(=O)N3CCCC3)nc3cnc4ccc(C#N)cc4c32)CCO1` [Compound 85, 1-[(2R,4R)-2-methyloxan-4-yl]-2-[2-oxo-2-(pyrrolidin-1-yl)ethyl]-1H-imidazo[4,5-c]quinoline-8-carbonitrile], the IC50 in assay [1] is 416 nM; against LRRK2 wild type enzyme, 5.11 nM.

Turning to `Cc1onc(NC(=O)Cc2nc3cnc4ccc(C#N)cc4c3n2[C@@H]2CCO[C@H](C)C2)c1C` [Compound 356, N-(4,5-dimethyl-3-isoxazolyl){3-[(2R,4R)-2-methyltetrahydro-2H-pyran-4-yl]-12-cyano-3,5,8-triazatricyclo[7.4.0.0^2,6]trideca-1(9),2(6),4,7,10,12-hexaen-4-yl}acetamide], the IC50 in assay [1] was determined as 7.78 nM; on LRRK2 wild type enzyme it was 0.439 nM.

In the case of `CN1CC(n2c(CC(=O)NCC3CC3)nc3cnc4ccc(C#N)cc4c32)CCC1=O` (single isomer, unassigned) [Compound 91], the IC50 in assay [1] is 6910 nM; against LRRK2 wild type enzyme, 40.4 nM.

For `C[C@@H]1C[C@H](n2c(CC(=O)NC3(CF)CC3)nc3cnc4ccc(C#N)cc4c32)CCO1` [Compound 294, N-1-(fluoromethyl)cyclopropyl{3-[(2R,4R)-2-methyltetrahydro-2H-pyran-4-yl]-12-cyano-3,5,8-triazatricyclo[7.4.0.0^2,6]trideca-1,4,6,8,10,12-hexaen-4-yl}acetamide], the IC50 in assay [1] was 132 nM; on LRRK2 wild type enzyme, 1.48 nM.

`C[C@@H]1C[C@H](n2c(CC(=O)NCc3cnn(C)c3)nc3cnc4ccc(C#N)cc4c32)CCO1` [Compound 87, 2-{8-cyano-1-[(2R,4R)-2-methyloxan-4-yl]-1H-imidazo[4,5-c]quinolin-2-yl}-N-[(1-methyl-1H-pyrazol-4-yl)methyl]acetamide]: the values for the IC50 (in assay [1]; against LRRK2 wild type enzyme) were 27.4 nM and 0.473 nM, respectively.

Consider `C[C@@H]1C[C@H](n2c(CN3CCCS3(=O)=O)nc3cnc4ccc(C#N)cc4c32)CCO1` [Compound 75, 2-[(1,1-dioxo-126,2-thiazolidin-2-yl)methyl]-1-[(2R,4R)-2-methyloxan-4-yl]-1H-imidazo[4,5-c]quinoline-8-carbonitrile], for which the IC50 in assay [1] is 590 nM; against LRRK2 wild type enzyme it was 11.1 nM.

For the compound `COc1cc(C(F)(F)F)ncc1NC(=O)Cc1nc2cnc3ccc(C#N)cc3c2n1[C@@H]1CCO[C@H](C)C1` [Compound 228, N-[4-methoxy-6-(trifluoromethyl)-3-pyridyl]{3-[(2R,4R)-2-methyltetrahydro-2H-pyran-4-yl]-12-cyano-3,5,8-triazatricyclo[7.4.0.0^2,6]trideca-1,4,6,8,10,12-hexaen-4-yl}acetamide], the values for the IC50 (in assay [1]; on LRRK2 wild type enzyme) were 3.17 nM and 0.36 nM, respectively.
